These results are taken from patent US10729693B2, “Compositions and methods for the treatment of endometriosis” (PONCE MEDICAL SCHOOL FOUNDATION, INC., priority 2018, dated 2020).

In one series the test system is stress reactivity. Briefly: Swim stress challenge. The class given is in vivo, rat. Conditions: day 59; vs vehicle control group.
For series [1], the system named is CRH peptide, CRHR1 and glucocorticoid receptor (GR) in hypothalamus and hippocampus. Briefly: Brain immunohistochemistry (percent of area immunolabeled). The class given is in vivo, rat. The procedure:
Protocols previously published (Torres-Reveron et al., 2016, 2009, 2008) were followed. Rats were perfused with 4% paraformaldehyde by aortic arch perfusion and brains were removed and stored in cryoprotectant solution (30% sucrose, 30% ethylene glycol) until further processing. Coronal tissue sections (40 μm thick) through the hypothalamus (sections 0.92 to 1.88 caudal to Bregma) and dorsal hippocampus (sections 3.8 to 4.3 caudal to Bregma), which include the amygdala were selected and incubated in antiserum raised against CRHR1 (goat polyclonal, Abcam, cat. ab59023), CRH peptide antibody (guinea pig polyclonal, Peninsula labs., cat. T-5007) or glucocorticoid receptor antibody (GR, rabbit monoclonal, Cell Signaling cat. #3660) for 48 hrs. at 4° C. Optimal working concentrations were determined for each antibody. The primary antibody was labeled with CY3 secondary antibody (1:400 Jackson ImmunoResearch, West Grove, Pa.). Images were taken at the same time and illumination (excitation) and background corrected to control for batch effects. All regions of interest were analyzed using Image J software (open access from NIH) to calculate the percent of positive immunolabeling within the region of interest. Tissue from control and experimental animals was processed together. For each animal, the two best morphologically preserved sections of each region of interest were included in the analysis.

The subject of the next series is implantation sites. The following applies: rodents; Fas-ligand immune tolerance dependent mechanism; cited from earlier work.
A further series has as its system anxiety behaviors. Briefly: Anxiety behaviors: open field and elevated zero maze. The following applies: day 60; compared to sham group. The class given is in vivo, rat. As to the method: One day before behavioral assessment and sacrifice a subset of rats (6 vehicle and 6 antalarmin) were subjected to an acute episode of swim stress of 10 min and compared to no stress controls to assess how rats respond to acute activation of the HPA axis. For this, animals were placed in a Plexiglas tank for 10 min in water at 25° C. Rats were towel dried and kept in warm cage after swim until fur dried. The next day, two behavioral tasks were used to assess anxiety behaviors. The open field test is used to quantify exploratory and locomotor activity of a rodent in an open arena. The apparatus used was a square wood arena (91×91×38 cm) with overhead light illumination and video monitoring to record animal activity using Any-Maze software (Stoelting, Wood Dale, Ill.). The following behaviors were quantified during 20 minutes: 1) total distance moved, 2) time spent moving, 3) time spent in the center of the arena, 4) time spent near the walls of the arena (defined by the 15 cm of floor arena closest to the walls) and 5) total fecal pellets. The more time the animal spends in the center of the arena compared to the space adjacent to the wall is considered as having less anxiety. At the end of the testing period, animals were returned to the home cage and after a 5-min break were tested in the elevated zero-maze.
The elevated zero-maze is very similar to the more traditional elevated plus maze test, with the advantage of not having a neutral (undefined) zone in the middle. The apparatus consisted of a circle with an arm width of 10 cm and elevated 40 cm from floor. […] Rats were allowed to run the maze for 5 consecutive minutes and recorded using the Any-Maze software (Stoelting, Wood Dale, Ill.). The following parameters were analyzed by the Any-Maze program: 1) total distance travelled in the maze, 2) time spent in the open/closed arms and 2) number of entries made by the rodent onto the open/closed arms. When 60% of the animal body entered the arm, the program counted is as an entry. In addition, total fecal pellets in the maze were quantified. […]

The test system of series [2] is corticosterone, adrenocorticotropic hormone (ACTH), IL-6. Briefly: ELISA of serum corticosterone and ACTH and of peritoneal fluid IL-6. Conditions: at sacrifice. The class given is in vivo, rat. From the text: It was verified that the animals were deeply anesthetized. Rats were weighed, and a cytological smear taken to verify stage of the estrous cycle. The peritoneal and thoracic cavities were opened, and a blood sample was collected directly from the heart. Following this, peritoneal fluid was collected using a sterile plastic pipette. Examination was directed to the presence of endometriosis vesicles. The implants that developed into vesicles were excised from the mesentery, weighed and measured using a digital caliper. Classification of vesicles was carried out and assigned the following grades: grade 1=disappeared; grade 2=0.01-1.99 mm; grade 3=2-4.49 mm; grade 4=4.5-5.99 mm; grade 5=6.0 mm or larger. In sham animals, empty suture sites were counted and collected. In addition to the endometriosis vesicles, the adrenal glands were collected, all surrounding fatty tissue was removed, and the cleared adrenal glands were weighed. Additionally, tissues from colon and the left uterine horn were collected. All tissues were flash frozen and stored at −80° until further processing.
Serum and peritoneal fluid samples from animals were tested for levels of corticosterone, adrenocorticotropic hormone (ACTH) and the pro-inflammatory cytokine IL-6 following instructions in the commercial kits. The following kits were used: Corticosterone rat/mouse kit (Cat. #79175; IBL America, Minneapolis, Minn.); Rat IL-6 pre-coated ELISA kit (Cat. #437107; BioLegend, San Diego, Calif.); Mouse/rat ACTH ELISA kit (Cat. # AC018T-100, Calbiotech, El Cajon, Calif.).

The test system of series [3] is mineralocorticoid receptor 2 mRNA. Briefly: mRNA of mineralocorticoid receptor 2 within the adrenal glands. The class given is in vivo, rat. Conditions: compared to sham group. The procedure:
FIG. 18: mRNA of mineralocorticoid receptor 2. Within the adrenal glands of the same animals from the sham or endometriosis groups that received vehicle or antalarmin, the mRNA of the mineralocorticoid receptor 2 was measured. This receptor is in charge of binding adrenocorticotropic hormone (ACTH), which was elevated in animals that received antalarmin. The mineralocorticoid receptor mRNA expression is decreased in response to antalarmin as compared to the sham group. This could be due to a down regulation of the receptor in response to increased ACTH circulating levels. ** p<0.01.

Where [4] appears, read: compared to sham, both endometriosis groups regardless of treatment.

Regarding `CCCCN(CC)c1nc(C)nc2c1c(C)c(C)n2-c1c(C)cc(C)cc1C` [antalarmin], the “swim stress behavioral parameters (immobility, swimming, struggling, diving)” value with stress reactivity is “not different from the control group”. Also, in series [1] (setting [4]), the “CRHR1 immunolabeling in dentate gyrus (DG)” value was “Large increases in CRHR1 labeling” and the “GR immunolabeling in dentate gyrus (DG)” value is given as “Large increases in GR labeling”. Moreover, in series [1] (day 60), the “CRH peptide immunolabeling in PVN and hippocampus” value is given as “No changes in CRH peptide”; the “CRHR1 immunolabeling in CA3” value is given as “No changes in CRHR1”; the “GR immunolabeling in CA3” value is “no changes in GR”. Moreover, the “reduction of the number of implantation sites” value in the series on implantation sites is reported as 70%. In the series with anxiety behaviors, the “open field: total distance traveled” value was “significantly lower”, the “zero maze: locomotor activity” value was “higher locomotor activity” and the “zero maze: time in the open arms” value is on record as “strong trend for both groups of rats with endometriosis to spend less time in the open arms”. Also, the “IL-6 in peritoneal fluid” value in series [2] (53 days after treatment) was “did not produce any change”. In series [2] (day 60), the serum corticosterone result is listed as “slightly elevated”. Further, the “serum adrenocorticotropic hormone (ACTH)” value in series [2] (day 60, compared to vehicle group) is listed as “significantly elevated levels”. For the same compound, the “mineralocorticoid receptor 2 mRNA expression in adrenal glands” value in series [3] is “decreased”.
